In patent EP1067965B1, “PHARMACEUTICAL COMPOSITION FOR TREATING CEREBRAL APOPLEXY AND CRANIOCEREBRAL TRAUMA” (Bayer HealthCare AG, priority 1997, dated 1999):

Legend:
[1] = test system: Rattenmodell der permanenten fokalen cerebralen Ischämie (MCA-O); test: Neuroprotection in the rat model of permanent focal cerebral ischaemia (MCA-O); format: in vivo, Ratte; settings: 7 days survival, Placebo 146,69 ± 6,77
Source text: Unter allgemeiner Narkose (Isofluran) wird in der Mitte zwischen Auge und Ohr ein Hautschnitt gelegt und unter Durchtrennung der darunterliegenden Muskelpartien ein Zugang zum Schädel im Bereich des Foramen ovale geschaffen. Etwa 1 mm rostrodorsal dieser Öffnung wird der Schädelkalotte durchgebohrt, die darunterliegenden Hirnhäute eröffnet, und durch Elektrokoagulation die Arteria cerebri media und deren Nebenäste permanent verschlossen. Daraufhin wird die Kaumuskulatur in ihre ursprüngliche Lage gebracht. Die Muskel- und Hautwunde wird chirurgisch verschlossen und versorgt. Nach dem Aufwachen aus der Narkose werden die Tiere in ihren Heimkäfig zurückgesetzt. Im Verlauf der folgenden Stunden entwickelt sich im Versorgungsgebiet der Arteria cerebri media ein Infarkt, dessen Ausdehnung histologisch quantifiziert wird.
Nach 7 Tagen Überlebenszeit werden die Tiere getötet, das Gehirn entnommen und in auf -30°C gekühltem 2-Methylbutan eingefroren. Mit Hilfe eines Kryostatmikrotoms werden 20 µm dicke Schnitte in 500 µm Abstand im Infarktbereich hergestellt. Nach der Cresylechtviolett-Färbung der fixierten Gehirnschnitte ist das Infarktgebiet vom nicht betroffenen Gewebe deutlich zu unterscheiden. […]

[2] = test system: isolierte Aortaringe des Kaninchens; test: Inhibition of KCl-induced contraction of isolated rabbit aortic rings; format: cell-based; settings: KCl 1 x 10^-2 mol/l; mean ± standard deviation; Nimodipin value under a comparable set-up; read-out: EC50-Wert, Inhibition der KCl-induzierten Kontraktion der Kaninchen-Aortenringe
Source text: Im Allgemeinen heben Kalziumkanalantagonisten die KCl-induzierte Kontraktion isolierter Aortaringe des Kaninchens auf (vgl. Arzneim.-Forsch./Drug Res. 1992, 42, 795-797; J. Pharmacol. Exp.Ther. 1953, 108,129-143.).
Kaninchen beiderlei Geschlechts werden schmerzlos betäubt und entblutet. Der thorakale Teil der Aorta descendens wird ohne Verletzung der Endothelschicht freipräpariert und auf ca. 2 mm breite spiraienförmige Streifensegmente geschnitten und einzeln unter einer Anfangsbelastung von ca. 2 g in 10ml Carbogen-begaste Krebs-Bicarbonat-Pufferlösung (37°C) verbracht.
Kontraktionen werden isometrisch erfaßt und ausgewertet.
Die funktionelle Integrität des Endotheliums wird durch Noradrenalin (1 x 10^-8 mol/l) induzierte Kontraktionen und durch Acetylcholin (1 x 10^-8 - 1 x 10^-5 mol/l) hervorgerufene Relaxation getestet. Nach einer Auswasch- und Ruhephase sowie Erreichen eines stabilen Basalwertes (ca. nach 2 Stunden) wird mit Zugabe von 0,25 ml KCl, bei einer Endkonzenration von 1 x 10^-2 mol/l eine submaximale (60-80%) Kontraktion der Aortastreifen ausgelöst. Die Testsubstanz wird während der Plateauphase der KCl induzierten Kontraktion in die Bäder appliziert (in steigender Dosierungen: 1 x 10^-12 - 1 x 10^-5 mol/l Endkonzentration) und die Wirkung auf den kontrahierten Gefäßstreifen gemessen. […]

[3] = molecular target: T1, 5-HT1A Rezeptor gekoppelte Adenylatcyclase-Aktivität (Rattus norvegicus, UniProt P19327); test: Inhibition of forskolin-stimulated adenylate cyclase activity on hippocampal cell membranes; format: biochemical; settings: Hippocampusmembranen der Ratte; 0,01 mM Forskolin; read-out: IC50-Wert, Inhibition der Forskolin-stimulierten Adenylatcyclase Aktivität
T1 construct: an hippocampalen Zellmembranen der Ratte; from tissue; host or cells: rat hippocampus membranes
T1 sequence (P19327 1-422): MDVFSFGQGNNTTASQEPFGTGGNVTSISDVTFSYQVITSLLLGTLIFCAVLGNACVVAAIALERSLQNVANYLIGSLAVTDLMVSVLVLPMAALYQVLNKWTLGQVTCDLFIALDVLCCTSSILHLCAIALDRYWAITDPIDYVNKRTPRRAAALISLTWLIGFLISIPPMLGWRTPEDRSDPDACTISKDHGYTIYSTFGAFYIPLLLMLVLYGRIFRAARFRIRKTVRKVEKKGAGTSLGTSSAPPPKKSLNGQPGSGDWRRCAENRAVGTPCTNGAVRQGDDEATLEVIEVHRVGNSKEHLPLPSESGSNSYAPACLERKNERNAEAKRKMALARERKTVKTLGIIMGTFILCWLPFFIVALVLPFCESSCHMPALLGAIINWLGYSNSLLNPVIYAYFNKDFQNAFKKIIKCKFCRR
Protocol: 5-HT1A Rezeptor gekoppelte Adenylatcyclase-Aktivität wurde an hippocampalen Zellmembranen der Ratte mit der Methodik von De Vivo und Maayani (J. Pharmacol. Exp. Ther. 1986, 238, 248-253.) gemessen.
Der Hippocampus wurde in 25 Volumen 0,3 M Sucroselösung (ergänzt mit 1mM EGTA, 5 mM EDTA, 5 mM Dithiothreitol und 20 mM Tris-HCl; pH 7,4 bei 25°C) in einem motorgetriebenen Potter-Elvehjem-Homogenisator zerkleinert. Das Homogenat wurde 10 min lang bei 1.000 g abzentrifugiert, danach der Überstand 10 min bei 39.000 g nochmals zentrifugiert. Das Pellet wurde im Homogenisationspuffer aufgenommen. Aliquots mit einem Proteingehalt von 1 mg/ml (gemessen nach Bradford Anal. Biochem. 1976, 72, 248-254.) wurden bei -140°C bis zur weiteren Verarbeitung aufbewahrt. Vor dem Assay wurde das aufgetaute Homogenat mit dem Potter-Elvehjem-Homogenisator nochmals homogenisiert. 50 µl Homogenat (mit ca. 50 µg Proteingehalt) wurden der vorgewärmten (5 min bei 30°C) Inkubationsmischung (100 mM NaCl, 2mM Magnesium Acetate 0,2 mM ATP, 1 mM cAMP, 0,01 mM GTP, 0,01 mM Forskolin, 80 mM Tris-HCl, 5 mM Creatine Phosphate, 0,8 U/µl Creatine Phosphokinase, 0,01 mM IBMX, 1 - 2 µCi α-[^32P]ATP) zupipettiert und so die Inkubation (10 min bei 30°C) gestartet.
Zur Messung der Adenylatcyclase-Aktivität wurde die Menge des gebildeten [^32P]cAMP nach Salomon (Adv. Cyclic Nucleotide Res. 1979, 10, 35-55.) bestimmt.

SMILES | Infarktvolumen im cerebralen Cortex (Mittelwert ± S.E.M; mm^3) ([1]; 0,003 mg/kg/Std i.v. infusion over 4 h directly after occlusion) | EC50 [2] [nM] | Infarktvolumen im cerebralen Cortex (Mittelwert ± S.E.M; mm^3) ([1]; i.v. infusion over 4 h directly after occlusion) | IC50 [3] [nM]
COCCOC(=O)C1=C(C)NC(C)=C(C(=O)OC(C)C)C1c1cccc([N+](=O)[O-])c1 (racemic) [Nimodipin, (RS)-1,4-Dihydro-2,6-dimethyl-4-(3-nitrophenyl)-3,5-pyridindicarbonsäure-isopropylester-2-methoxyethylester] | 120,87 ± 8,79 mm^3 | 2.9 to 4.3 |  | 
O=C1c2ccccc2S(=O)(=O)N1CCCCNCC1CCc2ccccc2O1 (single isomer, unassigned) [5-HT1A-Agonist*] |  |  | 104,79 ± 7,63 mm^3 | 1.6
COC(=O)C1=C(C)NC(C)=C(C(=O)OC)C1c1ccccc1[N+](=O)[O-] [Nifedipin] |  | 3.58 |  | 
